From ChEMBL document CHEMBL5614433, “The "Doorstop Pocket" In Thioredoxin Reductases─An Unexpected Druggable Regulator of the Catalytic Machinery” (J Med Chem, 2024)

Legend:
[1] = target: T1, Thioredoxin glutathione reductase (Schistosoma mansoni) (UniProt Q962Y6); assay: Inhibition of Schistosoma mansoni TGR at 66.7 uM incubated for 6 hrs in presence of NADPH
T1 sequence (whole entry): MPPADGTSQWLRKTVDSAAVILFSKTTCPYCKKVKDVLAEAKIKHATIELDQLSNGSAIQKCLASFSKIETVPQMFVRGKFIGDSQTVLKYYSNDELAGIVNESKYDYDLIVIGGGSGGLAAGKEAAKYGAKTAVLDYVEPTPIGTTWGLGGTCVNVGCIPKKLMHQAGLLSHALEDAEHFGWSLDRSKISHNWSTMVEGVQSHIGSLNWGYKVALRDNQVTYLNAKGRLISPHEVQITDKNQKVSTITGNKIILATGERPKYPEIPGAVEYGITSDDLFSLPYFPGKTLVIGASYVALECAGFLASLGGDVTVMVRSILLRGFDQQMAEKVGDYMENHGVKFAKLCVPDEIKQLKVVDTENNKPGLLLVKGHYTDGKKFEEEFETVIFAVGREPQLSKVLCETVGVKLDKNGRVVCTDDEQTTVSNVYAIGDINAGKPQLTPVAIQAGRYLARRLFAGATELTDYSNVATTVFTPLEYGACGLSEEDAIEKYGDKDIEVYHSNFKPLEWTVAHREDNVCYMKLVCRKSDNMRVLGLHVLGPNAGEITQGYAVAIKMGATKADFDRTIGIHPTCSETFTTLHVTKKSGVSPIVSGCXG

[2] = Inhibition of human TrxR1 incubated for 6 hrs in presence of NADPH
[3] = Cytotoxicity against african green monkey Vero cells measured after 24 hrs; assay type: toxicity, cell-based; details: chlorocebus sabaeus, read-out: LD50
Schistosoma mansoni = assay: Schistosomicidal-activity against Schistosoma mansoni adult worm measured after 24 hrs; assay type: functional; details: read-out: LD50 (the source's name)
[4] = Selectivity ratio of IC50 for human TrxR1 to IC50 for Schistosoma mansoni TGR
[5] = Inhibition of human TrxR1 incubated for 15 mins in presence of NADPH
[6] = target: T2, Thioredoxin glutathione reductase (Schistosoma mansoni, UniProt Q962Y6); assay: Inhibition of Schistosoma mansoni TGR incubated for 15 mins in presence of NADPH
T2 sequence (Q962Y6 whole entry): T1 sequence (whole entry)

[7] = Inhibition of human TrxR1

| Structure (SMILES) | inhibition [1] [%] | IC50 [2] [µM] | other results |
| --- | --- | --- | --- |
| C#CCN(Cc1nc(-c2ccccc2)oc1C)C1C[C@@H]2C[C@H]([C@H]1C)C2(C)C (stereo partly drawn) |  |  | CC50 at 24 h [3]: > 100 µM; LC50 (Schistosoma mansoni): 15.7 µM; Ratio IC50 [4]: 25; IC50 [5]: > 66.7 µM; IC50 [6]: 2.5 µM |
| O=C(Nc1ccc(Cl)cc1)c1ccc([N+](=O)[O-])o1 |  |  | IC50 [7]: 3.8 µM |
| C[C@@H]1[C@H]2C[C@@H](C[C@H]1NCc1nc3ccccc3n1C1CCCCCC1)C2(C)C |  |  | IC50 [5]: 4.9 µM |
| Cc1oc(-c2ccc3c(c2)OCO3)nc1CN[C@@H]1C[C@@H]2C[C@H]([C@H]1C)C2(C)C | 28.7 | > 19 |  |
| Cc1oc(-c2ccccc2)nc1CN[C@@H]1C[C@@H]2C[C@H]([C@H]1C)C2(C)C | 28.7 | > 19 |  |
| Cc1oc(-c2ccc3ccccc3c2)nc1CNC1CCCCCC1 | 28.7 | > 19 |  |
| C[C@@H]1[C@H]2C[C@@H](C[C@H]1NCc1cn([C@@H]3OC[C@@H](O)[C@H](O)[C@H]3O)c3ccccc13)C2(C)C |  |  | IC50 [6]: 57.5 µM |

Further lines, with some results ahead:

| inhibition [1] [%] | IC50 [2] [µM] | Structure (SMILES) | other results |
| --- | --- | --- | --- |
| 28.7 | > 19 | CCc1ccccc1-c1nc(CN[C@@H]2C[C@@H]3C[C@H]([C@H]2C)C3(C)C)c(C)o1 |  |
| 28.7 | > 19 | Cc1oc(C2CCCCC2)nc1CN[C@@H]1C[C@@H]2C[C@H]([C@H]1C)C2(C)C |  |
